Experimental data published in paper PMC11822212, “High-throughput screening identifies Aurora kinase B as a critical therapeutic target for Merkel cell carcinoma” (Nature Communications, 2025).
Where a name gives a salt, the structure may show the parent alone.

Experiments:
MCC13 cells (VN-MCC) = assay: qHTS cell viability (CellTiter-Glo, 72 h; primary and follow-up small molecule screen); type: cell-based, human
MCC26 cells (VN-MCC) = assay: as above; type: cell-based, human
UISO cells (VN-MCC) = assay: as above; type: cell-based, human
WAGA cells (VP-MCC) = assay: as above; type: cell-based, human
MKL-1 cells (VP-MCC) = assay: as above; type: cell-based, human
MKL-2 cells (VP-MCC) = assay: as above; type: cell-based, human
HACAT cells = assay: qHTS cell viability (CellTiter-Glo, 72 h; primary screen), control cell line; type: cell-based, human
HEK293T cells = assay: as above; type: cell-based, human
NIH-3T3 cells = assay: as above; type: cell-based, mouse
CRL-7250 cells = assay: as above; type: cell-based
[1] = system: MCC cell lines (WAGA, MKL-1, MKL-2, MCC13, MCC26, UISO); assay: qHTS cell viability, all six MCC cell lines as a group (mean AUC, MCC.avg); type: cell-based, human; conditions: mean AUC of six MCC cell lines
[2] = system: VP-MCC cell lines (WAGA, MKL-1, MKL-2); assay: qHTS cell viability, VP-MCC cell lines as a group (mean AUC, VP.MCC.avg); type: cell-based, human; conditions: for VP-MCC_Avg_AUC: mean AUC of VP-MCC cell lines
[3] = system: VN-MCC cell lines (MCC13, MCC26, UISO); assay: qHTS cell viability, VN-MCC cell lines as a group (mean AUC, VN.MCC.avg); type: cell-based, human; conditions: for VN-MCC_Avg_AUC: mean AUC of VN-MCC cell lines
[4] = system: control cell lines (HACAT, HEK293T, CRL-7250, NIH-3T3); assay: qHTS cell viability, control cell lines as a group (mean AUC, Control.avg); type: cell-based; conditions: mean AUC of control cell lines
[5] = system: six MCC cell lines and four control cell lines; assay: qHTS cell viability, all 10 cell lines screened; type: cell-based
[6] = NPC library, 8-point DRC, area under dose-response curve
[7] = NPC library, 8-point DRC, control cell line
[8] = MIPE library, 11-point DRC, sheet S2E
[9] = MIPE library, 11-point DRC, control cell line, sheet S2E
[10] = NPC library, qHTS dose-response AUC, MCC13
[11] = NPC library, qHTS dose-response AUC, MCC26
[12] = NPC library, qHTS dose-response AUC, UISO
[13] = NPC library, qHTS dose-response AUC, WAGA
[14] = NPC library, qHTS dose-response AUC, MKL1
[15] = NPC library, qHTS dose-response AUC, MKL2
[16] = NPC library, qHTS dose-response AUC, HACAT control
[17] = NPC library, qHTS dose-response AUC, HEK293T control
[18] = NPC library, qHTS dose-response AUC, NIH3T3 control
[19] = NPC library, qHTS dose-response AUC, CRL7250 control
[20] = NPC library, therapeutic window: Control avg AUC minus VP-MCC avg AUC
[21] = NPC library, therapeutic window: Control avg AUC minus VN-MCC avg AUC
[22] = NPC library, therapeutic window: Control avg AUC minus MCC avg AUC

SMILES: O=S1(=O)OC(c2ccc(O)cc2)(c2ccc(O)cc2)c2ccccc21 [Phenol red]
- MCC13_AUC (MCC13 cells (VN-MCC); [6]): 422.151
- MCC26_AUC (MCC26 cells (VN-MCC); [6]): 404.069
- UISO_AUC (UISO cells (VN-MCC); [6]): 423.512
- WAGA_AUC (WAGA cells (VP-MCC); [6]): 458.996
- MKL1_AUC (MKL-1 cells (VP-MCC); [6]): 429.88
- MKL2_AUC (MKL-2 cells (VP-MCC); [6]): 451.959
- HACAT_AUC (HACAT cells; [7]): 492.366
- HEK293T_AUC (HEK293T cells; [7]): 472.146
- NIH3T3_AUC (NIH-3T3 cells; [7]): 484.742
- CRL7250_AUC (CRL-7250 cells; [7]): 462.075
- MCC_Avg_AUC ([1]; NPC library): 431.761
- Control-VP-MCC ([2]; NPC library, Control AUC minus VP-MCC AUC (therapeutic window)): 30.8871
- VP-MCC_Avg_AUC ([2]; NPC library): 446.945
- Control-VN-MCC ([3]; NPC library, Control AUC minus VN-MCC AUC (therapeutic window)): 61.2549
- VN-MCC_Avg_AUC ([3]; NPC library): 416.577
- Control_Avg_AUC ([4]; NPC library): 477.832
- Control-MCC ([5]; NPC library, Control AUC minus MCC AUC (therapeutic window)): 46.071

SMILES: C=C1/C(=C\C=C2/CCC[C@]3(C)[C@@H]([C@H](C)/C=C/[C@H](C)C(C)C)CC[C@@H]23)C[C@@H](O)C[C@@H]1O [1-alpha-Hydroxyergocalciferol]
- MCC13_AUC (MCC13 cells (VN-MCC); [8]): 466.906
- MCC26_AUC (MCC26 cells (VN-MCC); [8]): 429.194
- UISO_AUC (UISO cells (VN-MCC); [8]): 386.134
- WAGA_AUC (WAGA cells (VP-MCC); [8]): 235.191
- MKL1_AUC (MKL-1 cells (VP-MCC); [8]): 338.352
- MKL2_AUC (MKL-2 cells (VP-MCC); [8]): 310.498
- HACAT_AUC (HACAT cells; [9]): 470.948
- HEK293T_AUC (HEK293T cells; [9]): 473.524
- NIH3T3_AUC (NIH-3T3 cells; [9]): 349.858
- CRL7250_AUC (CRL-7250 cells; [9]): 418.5
- MCC_Avg_AUC ([1]; MIPE library, sheet S2E): 361.046
- Control-VP-MCC ([2]; MIPE library, Control AUC minus VP-MCC AUC (therapeutic window), sheet S2E): 133.527
- VP-MCC_Avg_AUC ([2]; MIPE library, sheet S2E): 294.68
- Control-VN-MCC ([3]; MIPE library, Control AUC minus VN-MCC AUC (therapeutic window), sheet S2E): 0.7959
- VN-MCC_Avg_AUC ([3]; MIPE library, sheet S2E): 427.411
- Control_Avg_AUC ([4]; MIPE library, sheet S2E): 428.207
- Control-MCC ([5]; MIPE library, Control AUC minus MCC AUC (therapeutic window), sheet S2E): 67.1615

SMILES: CCCCCCCCCCCCCCCC[N+](C)(C)CC [Ethylhexadecyldimethylammonium bromide]
- MCC13_AUC (MCC13 cells (VN-MCC); [10]): 452.398
- Area under the dose-response curve (AUC) MCC13 Replicate 1 (MCC13 cells (VN-MCC); follow-up screen, MCC13, replicate 1): 444.8
- Area under the dose-response curve (AUC) MCC13 Replicate 2 (MCC13 cells (VN-MCC); follow-up screen, MCC13, replicate 2): 473.1
- Area under the dose-response curve (AUC) MCC13 Replicate 3 (MCC13 cells (VN-MCC); follow-up screen, MCC13, replicate 3): 416.6
- MCC26_AUC (MCC26 cells (VN-MCC); [11]): 497.964
- Area under the dose-response curve (AUC) MCC26 Replicate 1 (MCC26 cells (VN-MCC); follow-up screen, MCC26, replicate 1): 420.1
- Area under the dose-response curve (AUC) MCC26 Replicate 2 (MCC26 cells (VN-MCC); follow-up screen, MCC26, replicate 2): 377.6
- Area under the dose-response curve (AUC) MCC26 Replicate 3 (MCC26 cells (VN-MCC); follow-up screen, MCC26, replicate 3): 430.8
- UISO_AUC (UISO cells (VN-MCC); [12]): 345.634
- Area under the dose-response curve (AUC) UISO Replicate 1 (UISO cells (VN-MCC); follow-up screen, UISO, replicate 1): 324.1
- Area under the dose-response curve (AUC) UISO Replicate 2 (UISO cells (VN-MCC); follow-up screen, UISO, replicate 2): 364.3
- Area under the dose-response curve (AUC) UISO Replicate 3 (UISO cells (VN-MCC); follow-up screen, UISO, replicate 3): 313.9
- WAGA_AUC (WAGA cells (VP-MCC); [13]): 248.495
- Area under the dose-response curve (AUC) WAGA Replicate 1 (WAGA cells (VP-MCC); follow-up screen, WAGA, replicate 1): 383.4
- Area under the dose-response curve (AUC) WAGA Replicate 2 (WAGA cells (VP-MCC); follow-up screen, WAGA, replicate 2): 363.0
- Area under the dose-response curve (AUC) WAGA Replicate 3 (WAGA cells (VP-MCC); follow-up screen, WAGA, replicate 3): 382.5
- MKL1_AUC (MKL-1 cells (VP-MCC); [14]): 275.727
- Area under the dose-response curve (AUC) MKL-1 Replicate 1 (MKL-1 cells (VP-MCC); follow-up screen, MKL-1, replicate 1): 317.9
- Area under the dose-response curve (AUC) MKL-1 Replicate 2 (MKL-1 cells (VP-MCC); follow-up screen, MKL-1, replicate 2): 305.9
- Area under the dose-response curve (AUC) MKL-1 Replicate 3 (MKL-1 cells (VP-MCC); follow-up screen, MKL-1, replicate 3): 330.7
- MKL2_AUC (MKL-2 cells (VP-MCC); [15]): 235.245
- Area under the dose-response curve (AUC) MKL-2 Replicate 1 (MKL-2 cells (VP-MCC); follow-up screen, MKL-2, replicate 1): 333.8
- Area under the dose-response curve (AUC) MKL-2 Replicate 2 (MKL-2 cells (VP-MCC); follow-up screen, MKL-2, replicate 2): 320.4
- Area under the dose-response curve (AUC) MKL-2 Replicate 3 (MKL-2 cells (VP-MCC); follow-up screen, MKL-2, replicate 3): 334.2
- HACAT_AUC (HACAT cells; [16]): 288.244
- HEK293T_AUC (HEK293T cells; [17]): 340.309
- NIH3T3_AUC (NIH-3T3 cells; [18]): 447.34
- CRL7250_AUC (CRL-7250 cells; [19]): 362.003
- MCC_Avg_AUC ([1]; NPC library): 342.577
- VP-MCC_Avg_AUC ([2]; NPC library): 253.156
- Control-VP-MCC [2, 20]: 106.318
- VN-MCC_Avg_AUC ([3]; NPC library): 431.999
- Control-VN-MCC [3, 21]: -72.525
- Control_Avg_AUC ([4]; NPC library): 359.474
- Control-MCC [5, 22]: 16.8967

SMILES: c1ccc(CC2=NCCN2)cc1 [Tolazoline hydrochloride]
- MCC13_AUC (MCC13 cells (VN-MCC); [10]): 452.083
- MCC26_AUC (MCC26 cells (VN-MCC); [11]): 395.361
- UISO_AUC (UISO cells (VN-MCC); [12]): 451.588
- WAGA_AUC (WAGA cells (VP-MCC); [13]): 433.154
- MKL1_AUC (MKL-1 cells (VP-MCC); [14]): 395.582
- MKL2_AUC (MKL-2 cells (VP-MCC); [15]): 397.927
- HACAT_AUC (HACAT cells; [16]): 471.166
- HEK293T_AUC (HEK293T cells; [17]): 454.352
- NIH3T3_AUC (NIH-3T3 cells; [18]): 440.048
- CRL7250_AUC (CRL-7250 cells; [19]): 475.841
- MCC_Avg_AUC ([1]; NPC library): 420.949
- VP-MCC_Avg_AUC ([2]; NPC library): 408.888
- Control-VP-MCC [2, 20]: 51.4641
- VN-MCC_Avg_AUC ([3]; NPC library): 433.01
- Control-VN-MCC [3, 21]: 27.3412
- Control_Avg_AUC ([4]; NPC library): 460.352
- Control-MCC [5, 22]: 39.4026
